Assay results taken from PMC10648927, “Examining the activity of cefepime-taniborbactam against Burkholderia cepacia complex and Burkholderia gladioli isolated from cystic fibrosis patients in the United States” (Antimicrobial Agents and Chemotherapy, 2023).
In brackets after ≈: the same amount, converted by molar mass.

Assays:
Parameters in all cases: agar dilution MIC, growth inhibition of clinical Burkholderia isolates
B. multivorans AU20929 = system: T1, B. multivorans AU20929; experiment: microbe, parasite or virus in culture; conditions: Burkholderia multivorans, AU20929
T1 construct: AU20929
Procedure, shortened: (§1)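 MICs by agar dilution against Bcc and B. gladioli clinical isolates, interpreted with CLSI breakpoints where available; K. pneumoniae ATCC 700603 (SHV-18) and ATCC BAA-1705 (KPC) served as quality controls.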

B. vietnamiensis AU10214 = system: T2, B. vietnamiensis AU10214; experiment: microbe, parasite or virus in culture; conditions: Burkholderia vietnamiensis, AU10214
T2 construct: AU10214
Procedure, shortened: as §1

B. multivorans AU10086 = system: T3, B. multivorans AU10086; experiment: microbe, parasite or virus in culture; conditions: Burkholderia multivorans, AU10086
T3 construct: AU10086
Procedure, shortened: as §1

B. dolosa AU29021 = system: T4, B. dolosa AU29021; experiment: microbe, parasite or virus in culture; conditions: Burkholderia dolosa, AU29021
T4 construct: AU29021
Procedure, shortened: as §1

[1] = system: T5, Burkholderia cepacia complex Bcc Indeterminate AU18117; experiment: microbe, parasite or virus in culture; conditions: Burkholderia cepacia
T5 construct: AU18117
Procedure, shortened: as §1

B. multivorans AU17534 = system: T6, B. multivorans AU17534; experiment: microbe, parasite or virus in culture; conditions: Burkholderia multivorans, AU17534
T6 construct: AU17534
Procedure, shortened: as §1

B. vietnamiensis AU28891 = system: T7, B. vietnamiensis AU28891; experiment: microbe, parasite or virus in culture; conditions: Burkholderia vietnamiensis, AU28891
T7 construct: AU28891
Procedure, shortened: as §1

B. cenocepacia AU3663 = system: T8, B. cenocepacia AU3663; experiment: microbe, parasite or virus in culture; conditions: Burkholderia cenocepacia, AU3663
T8 construct: AU3663
Procedure, shortened: as §1

B. cenocepacia AU12265 = system: T9, B. cenocepacia AU12265; experiment: microbe, parasite or virus in culture; conditions: Burkholderia cenocepacia, AU12265
T9 construct: AU12265
Procedure, shortened: as §1

B. cenocepacia AU0756 = system: T10, B. cenocepacia AU0756; experiment: microbe, parasite or virus in culture; conditions: Burkholderia cenocepacia, AU0756
T10 construct: AU0756
Procedure, shortened: as §1

B. contaminans AU2244 = system: T11, B. contaminans AU2244; experiment: organism not typed
T11 construct: AU2244
Procedure, shortened: as §1

[2] = system: T12, Burkholderia cepacia complex Bcc Indeterminate AU12848; experiment: microbe, parasite or virus in culture; conditions: Burkholderia cepacia
T12 construct: AU12848
Procedure, shortened: as §1

B. multivorans AU14328 = system: T13, B. multivorans AU14328; experiment: microbe, parasite or virus in culture; conditions: Burkholderia multivorans, AU14328
T13 construct: AU14328
Procedure, shortened: as §1

B. gladioli AU30473 = system: T14, B. gladioli AU30473; experiment: organism not typed
T14 construct: AU30473
Procedure, shortened: as §1

B. cenocepacia AU24362 = system: T15, B. cenocepacia AU24362; experiment: microbe, parasite or virus in culture; conditions: Burkholderia cenocepacia, AU24362
T15 construct: AU24362
Procedure, shortened: as §1

B. cepacia AU29493 = system: T16, B. cepacia AU29493; experiment: microbe, parasite or virus in culture; conditions: Burkholderia cepacia, AU29493
T16 construct: AU29493
Procedure, shortened: as §1

B. gladioli AU28659 = system: T17, B. gladioli AU28659; experiment: organism not typed
T17 construct: AU28659
Procedure, shortened: as §1

Row | Structure (SMILES) | MIC (B. multivorans AU20929) | MIC (B. vietnamiensis AU10214) | MIC (B. multivorans AU10086) | MIC (B. dolosa AU29021) | MIC [1] | MIC (B. multivorans AU17534) | MIC (B. vietnamiensis AU28891) | MIC (B. cenocepacia AU3663) | MIC (B. cenocepacia AU12265) | MIC (B. cenocepacia AU0756) | MIC (B. contaminans AU2244) | MIC [2] | MIC (B. multivorans AU14328) | MIC (B. gladioli AU30473) | MIC (B. cenocepacia AU24362) | MIC (B. cepacia AU29493) | MIC (B. gladioli AU28659)
1 | CO/N=C(\C(=O)N[C@@H]1C(=O)N2C(C(=O)[O-])=C(C[N+]3(C)CCCC3)CS[C@H]12)c1csc(N)n1 [cefepime] | 8 µg/mL (≈ 16.6 µM) | 8 µg/mL (≈ 16.6 µM) | 32 µg/mL (≈ 66.6 µM) | > 32 µg/mL | > 32 µg/mL | > 32 µg/mL | 8 µg/mL (≈ 16.6 µM) | 32 µg/mL (≈ 66.6 µM) | 16 µg/mL (≈ 33.3 µM) | > 32 µg/mL | 16 µg/mL (≈ 33.3 µM) | > 32 µg/mL | 8 µg/mL (≈ 16.6 µM) | 32 µg/mL (≈ 66.6 µM) | > 32 µg/mL | > 32 µg/mL | 32 µg/mL (≈ 66.6 µM)
2 | C[C@H]1COc2c(N3CCN(C)CC3)c(F)cc3c(=O)c(C(=O)O)cn1c23 [levofloxacin] | 4 µg/mL (≈ 11.1 µM) | 8 µg/mL (≈ 22.1 µM) | > 32 µg/mL | 4 µg/mL (≈ 11.1 µM) | > 32 µg/mL | – | 8 µg/mL (≈ 22.1 µM) | 16 µg/mL (≈ 44.3 µM) | 4 µg/mL (≈ 11.1 µM) | > 32 µg/mL | 4 µg/mL (≈ 11.1 µM) | 8 µg/mL (≈ 22.1 µM) | 2 µg/mL (≈ 5.53 µM) | 2 µg/mL (≈ 5.53 µM) | 8 µg/mL (≈ 22.1 µM) | 8 µg/mL (≈ 22.1 µM) | 2 µg/mL (≈ 5.53 µM)
3 | C[C@@H](O)[C@H]1C(=O)N2C(C(=O)O)=C(S[C@@H]3CN[C@H](C(=O)N(C)C)C3)[C@H](C)[C@H]12 [meropenem] | 8 µg/mL (≈ 20.9 µM) | 0.5 µg/mL (≈ 1.3 µM) | 32 µg/mL (≈ 83.4 µM) | 8 µg/mL (≈ 20.9 µM) | 8 µg/mL (≈ 20.9 µM) | 16 µg/mL (≈ 41.7 µM) | 2 µg/mL (≈ 5.22 µM) | 4 µg/mL (≈ 10.4 µM) | 4 µg/mL (≈ 10.4 µM) | 32 µg/mL (≈ 83.4 µM) | 4 µg/mL (≈ 10.4 µM) | 8 µg/mL (≈ 20.9 µM) | 4 µg/mL (≈ 10.4 µM) | 4 µg/mL (≈ 10.4 µM) | 16 µg/mL (≈ 41.7 µM) | 8 µg/mL (≈ 20.9 µM) | 2 µg/mL (≈ 5.22 µM)
